Laboratory results taken from patent US7491793B2 (priority 2003, dated 2009).

Test system: Lassa virus (Josiah strain)
Format: cell-based

Row | Sequence | inhibition of plaque formation by LasV
1 | GWTFWTLSDSEGKDTPGGY [SEQ ID NO:31] | inhibited infection by LasV, but to a lesser extent
2 | NYSKYWYLNHTTTGR [SEQ ID NO:30] | can inhibit plaque formation by LasV
